Legend:
pre-miR-21 WT = experiment: Microscale thermophoresis (MST) binding to pre-miR-21 WT
Method: Microscale Thermophoresis (MST) Binding Measurements. MST fluorescent measurements were performed on a Monolith NT.115 system (NanoTemper Technologies) using the fluorescence of a miR-21 hairpin (A+U Bulge): (5′ Cy5-[…]-3′) (SEQ ID NO: 1) or a miR-21 base paired control (5′ Cy5-[…]-3′) (SEQ ID NO: 2) which were purchased from IDT with RNase-free HPLC purification and used without further purification. The RNA (5 nM) was diluted in 1×MST Buffer (8 mM Na2HPO4, 190 mM NaCl, 1 mM EDTA, and 0.05% (v/v) Tween-20) and folded by heating at 60° C. for 5 min, and slowly cooling to room temperature. Compounds 1 and 2 were diluted in 1×MST Buffer, followed by 1:3 dilutions in 1×MST Buffer containing 5 nM RNA. […] Fluorescence measurements (Ex: 605-645 nm, Em: 680-685 nm) were performed at 10% LED and 80% MST power, with a Laser-On time of 30 s and Laser-Off time of 5 s. The data were analyzed by thermophoresis analysis and fitted by the quadratic binding equation in MST analysis software (NanoTemper Technologies). Dissociation constants were then determined by curve fitting using a single-site model. Normalized MST signal was calculated by normalizing the fluorescent signals using the MST data of 1 binding to pre-miR-21 WT with the lowest signal as 0 and the highest fluorescent signal as 1.

MCF-10a cells = experiment: Boyden chamber invasion assay, MCF-10a; assay type: cell-based; conditions: for effect on invasion induced by overexpression of pre-miR-21: MCF-10a + pre-miR-21
Method: Boyden Chamber Invasion Assay. The MDA-MB-231, MDA-LM2, A375, A549, or MCF-10a cells (5×10^4) were seeded into Hanging Cell Culture Inserts for 24 well plates with uncoated membranes with 8.0 μm pores (Millicell) in serum free growth media. A 3 mg/mL layer (100 μL) of Matrigel (Fisher Scientific: CB40234) diluted with serum free growth media was prepared inside of each membrane. Cells were cultured as described above, with or without compound treatment, and allowed to invade towards complete growth media in the bottom well for 16-24 h before ending the experiment by removing the media in the bottom wells and inserts. The hanging cell culture inserts and bottom wells were washed twice with 1×PBS, gently shaking to mix. Excess liquid and cells inside the insert were removed with cotton swabs, after which 400 μL of 4% paraformaldehyde was placed into the bottom well and incubated for 20 min at room temperature to fix the cells. The wells and inserts were washed twice with 1×PBS and then treated with 400 μL of 0.1% crystal violet solution for 20 min at room temperature to stain the cells. The wells and inserts were washed twice with water, followed by one wash with 1×PBS. Inserts were dried with cotton swabs to remove extra stain and cells inside the insert, then were air-dried, followed by Brightfield microscopic analysis using a Leica DMI3000 B […] fluorescent microscope. Four different fields of view from each captured image were counted for crystal violet stained or unstained cells. Normalized cells invaded was calculated with equation 5 (Eq 5): […]
where stained cells represent cells counted with crystal violet stain observed in the compound treated or vehicle treated samples, respectively.

[1] = test system: proteome of MDA-MB-231 cells; experiment: Global proteomics profiling (LC-MS/MS) of MDA-MB-231 cells; assay type: cell-based, human; conditions: 50 nM, versus all proteins
Method: Global proteomics profiling using LC-MS/MS. The MDA-MB-231 cells treated with vehicle (DMSO) or 5 (50 nM) were washed with PBS, harvested by scraping, centrifuged at 1500×g for five minutes at 4° C. and then resuspended in PBS. Cells were lysed by sonication and lysate protein concentrations were determined using a Bradford assay (Bio-Rad). Protein samples (40 μg) were denatured with 6 M urea in 50 mM NH4HCO3, reduced with 10 mM tris(2-carboxyethyl)phosphine hydrochloride (TCEP) for 30 minutes, and then alkylated with 25 mM iodoacetamide for 30 minutes in the dark. Samples were diluted to 2 M urea with 50 mM NH4HCO3, and digested with trypsin (2 μL of 0.5 μg/μL) in the presence of 1 mM CaCl2) for 12 hours at 37° C. […] Samples were analyzed by LC-MS/MS (see below) and the MS data was processed with MaxQuant and Proteome Discoverer (see below).
LC-MS/MS analysis: Peptides were resuspended in water with 0.1% formic acid (FA) and analyzed using an EASY-nLC 1200 nano-UHPLC coupled to Q Exactive HF-X Quadrupole-Orbitrap mass spectrometer (Thermo Scientific). […]
MaxQuant analysis: The MS data was analyzed with MaxQuant (V1.6.1.0)^27 and searched against the human proteome (Uniprot) and a common list of contaminants (included in MaxQuant). […] The minimum peptide length was set to 6 amino acids and peptide re-quantification and label-free quantification (MaxLFQ) were enabled. […]

Structure (SMILES)	enhancement of pre-miR-21 binding over the compound of Formula 1 (pre-miR-21 WT) [fold]	effect on invasion induced by overexpression of pre-miR-21 (MCF-10a cells)	effect on invasion induced by overexpression of pre-miR-21 (MCF-10a cells; listed as Formula 5)	effect on invasion (MCF-10a cells; MCF-10a, no pre-miR-21 overexpression)	median log fold-change of predicted downstream protein targets of miR-21 [1]
CCCN(CC(=O)N(CCC)CC(=O)N(CCC)CC(=O)N(CC(N)=O)Cc1cn(CCCNC(=O)CCCOc2ccc(-c3nc4cc(-c5ccc(N6CCN(C)CC6)cc5)ccc4[nH]3)cc2)nn1)C(=O)CNCc1cn(CCCNC(=O)CCCOc2ccc(-c3nc4cc(-c5ccc(N6CCN(C)CC6)cc5)ccc4[nH]3)cc2)nn1 [Compound 2]	20				
CCCN(CC(=O)N(CCC)CC(=O)N(CCC)CC(=O)N(CC(=O)NCCOCCOCCOCCOc1ccc(C=C2SC(Nc3ccccc3)=C(C(=O)OCC)C2=O)cc1O)Cc1cn(CCCNC(=O)CCCOc2ccc(-c3nc4cc(-c5ccc(N6CCN(C)CC6)cc5)ccc4[nH]3)cc2)nn1)C(=O)CN(Cc1cn(CCCNC(=O)CCCOc2ccc(-c3nc4cc(-c5ccc(N6CCN(C)CC6)cc5)ccc4[nH]3)cc2)nn1)C(C)=O [Compound 5]		decreased invasion	inhibited invasion	no effect on invasion	significantly upregulated relative to all proteins
